According to patent publication US8877944B2, “3-oxo-2,3-dihydro-1H-isoindole-4-carboxamides as PARP inhibitors” (Nerviano Medical Sciences S.R.L., priority 2009, dated 2014):

Columns and labels:
PARP-1 FL = PARP-1 FL (Homo sapiens (Human), UniProt P09874); assay: Fluorescence polarization probe displacement assay, PARP-1; format: binding; conditions: for Kd: compound P1 as the probe, 250 nM PARP-1; for DC50: half maximal displacement concentration
Protocol: (§1) Affinity evaluation of the tested compounds and their selectivity with respect to the different PARP isoforms of interest was assessed in a displacement assay.
(§2) The polarization signal can be measured, e.g., by a plate reader such as the Saphire2 (Tecan). The displacement ability of the test compound is in correlation with the compound affinity for the NAD pocket of the enzyme.
(§3) The assay performances were then evaluated (Z′ factor) as well as the displacement of the probe by its scaffold and known commercially available PARP inhibitors. In all of the experiments, the polarization signal was measured using a Saphire2 plate reader (Tecan). Data analysis was performed using Dynafit software. In particular, titration data were fitted to the following equilibria: Enzyme+probe <==> Complex Enzyme-probe, while displacement data were fitted to the following equilibria: Enzyme+probe <==> Complex Enzyme-probe, Enzyme+Compound <==> Complex Enzyme-Compound, whereby binding of probe and compound on the enzyme are mutually exclusive (pure competitive mechanism). Displacement data were also fitted using Excell spreadsheet (Microsoft Inc. Seattle, USA) to a four parameter logistic model (4PL), or Hill-Slope model to calculate DC50s where the DC50 value represents the compound concentration at which the polarization signal is diminished by 50% compared to untreated controls.
(§4) KD values, are the average of three independent experiments.

PARP-2 FL = PARP-2 FL (Homo sapiens (Human), UniProt Q9UGN5); assay: Fluorescence polarization probe displacement assay, PARP-2; format: binding; conditions: read-out: PARP-2 DC50; half maximal displacement concentration
Protocol: as §1, §2, §3, §4

[1] = system: PAR formation in HeLa cells; assay: Cellular PAR assay: inhibition of hydrogen peroxide induced PAR formation; conditions: Homo sapiens, read-out: PAR assay IC50
Protocol: Compounds potencies were evaluated by measuring the inhibition of poly (ADP-ribose) (PAR) chains formation as a marker for PARP-1 inhibition.
Cellular activity of PARP-1 inhibitors was assessed by measuring the inhibition of the hydrogen peroxide induced PAR formation in HeLa cells (ECACC). Cellular PAR levels were measured by immunocytochemistry, and quantified using an ArrayScan vTi instrument (Cellomics Thermo Scientific).
Test compounds were then added at the required concentration for 30′. […] Concentration curves were prepared in MEM/10% FCS from compound stocks in DMSO, and final DMSO concentration was 0.002% (v/v). Duplicate wells for each concentration point were prepared with a typical highest compound concentration of 20 μM and serial dilution 1:3. […] Non-specific binding sites were blocked by incubating wells for 30 min in PBS containing 5% (w/v) FBS 0.05% tween20. […] After washing further 3 times in PBS, cellular PAR immunoreactivity was assessed using the ArrayScan vTi instrument, with a Zeiss 10×0.5 N.A. objective, and applying the Cytotoxicity.V3 algorithm (Cellomics/Thermo Fisher) with a XF100 filter. At least 10 fields, corresponding to at least 900 cells, were read for each well.
The following formula is used: IC50=Bottom+(Top-Bottom)/(1+10^((LogEC50−X))); X is the logarithm of concentration. IC50 is the response; IC50 starts at Bottom and goes to Top with a sigmoid shape.

Sequence of PARP-2 FL (Q9UGN5 whole entry): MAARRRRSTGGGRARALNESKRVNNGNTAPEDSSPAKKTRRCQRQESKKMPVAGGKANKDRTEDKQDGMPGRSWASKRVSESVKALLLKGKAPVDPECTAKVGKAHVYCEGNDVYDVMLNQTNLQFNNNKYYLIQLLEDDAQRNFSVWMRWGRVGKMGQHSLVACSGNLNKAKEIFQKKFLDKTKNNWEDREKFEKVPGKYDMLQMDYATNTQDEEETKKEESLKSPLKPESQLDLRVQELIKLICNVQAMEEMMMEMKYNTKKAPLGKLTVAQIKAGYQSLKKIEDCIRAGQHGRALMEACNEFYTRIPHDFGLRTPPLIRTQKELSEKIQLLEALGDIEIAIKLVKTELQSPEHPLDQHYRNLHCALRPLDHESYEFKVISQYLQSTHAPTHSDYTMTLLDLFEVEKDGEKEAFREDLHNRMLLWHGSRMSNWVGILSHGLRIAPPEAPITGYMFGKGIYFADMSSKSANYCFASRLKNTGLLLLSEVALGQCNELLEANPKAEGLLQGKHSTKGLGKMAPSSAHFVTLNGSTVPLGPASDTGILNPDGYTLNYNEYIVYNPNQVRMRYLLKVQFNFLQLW
Sequence of PARP-1 FL (P09874 whole entry): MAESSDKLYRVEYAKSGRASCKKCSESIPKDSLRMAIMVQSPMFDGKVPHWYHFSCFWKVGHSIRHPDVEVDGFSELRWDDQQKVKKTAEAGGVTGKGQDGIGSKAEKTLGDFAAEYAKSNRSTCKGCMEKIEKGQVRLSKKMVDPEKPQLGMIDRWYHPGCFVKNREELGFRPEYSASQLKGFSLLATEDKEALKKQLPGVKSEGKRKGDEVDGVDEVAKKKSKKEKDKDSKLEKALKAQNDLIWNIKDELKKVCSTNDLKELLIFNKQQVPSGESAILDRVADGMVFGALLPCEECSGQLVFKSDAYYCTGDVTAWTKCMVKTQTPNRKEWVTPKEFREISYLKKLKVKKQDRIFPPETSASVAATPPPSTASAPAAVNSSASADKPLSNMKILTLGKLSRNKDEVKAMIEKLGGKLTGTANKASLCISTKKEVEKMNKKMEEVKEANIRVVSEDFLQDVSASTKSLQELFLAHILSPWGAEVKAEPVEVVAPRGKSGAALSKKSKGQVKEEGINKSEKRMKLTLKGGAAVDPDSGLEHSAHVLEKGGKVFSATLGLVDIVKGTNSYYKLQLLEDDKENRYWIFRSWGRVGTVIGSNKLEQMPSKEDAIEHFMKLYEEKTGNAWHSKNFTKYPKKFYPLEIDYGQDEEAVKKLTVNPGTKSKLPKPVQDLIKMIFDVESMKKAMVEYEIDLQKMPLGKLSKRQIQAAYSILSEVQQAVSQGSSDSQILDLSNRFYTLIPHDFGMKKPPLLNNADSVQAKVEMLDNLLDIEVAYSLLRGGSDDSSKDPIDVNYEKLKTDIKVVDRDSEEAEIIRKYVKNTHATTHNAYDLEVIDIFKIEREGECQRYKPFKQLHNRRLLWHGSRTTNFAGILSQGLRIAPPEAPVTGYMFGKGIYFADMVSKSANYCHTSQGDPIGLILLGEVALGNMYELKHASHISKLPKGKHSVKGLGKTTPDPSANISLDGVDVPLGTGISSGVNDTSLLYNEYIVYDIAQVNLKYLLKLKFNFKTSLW

Row | SMILES | Kd (PARP-1 FL) [nM] | DC50 (PARP-1 FL) [nM] | DC50 (PARP-2 FL) [nM] | IC50 [1] [nM]
1 | COC[C@H]1CC[C@@H](N2CCC(N3Cc4cccc(C(N)=O)c4C3=O)CC2)CC1 [Compound 5, 2-{1-[Cis-4-(methoxymethyl)cyclohexyl]piperidin-4-yl}-3-oxo-2,3-dihydro-1H-isoindole-4-carboxamide] | 40 | < 250 | > 10000 | 4600
2 | COC[C@H]1CC[C@H](N2CCC(N3Cc4cccc(C(N)=O)c4C3=O)CC2)CC1 [Compound 6, 2-{1-[Trans-4-(methoxymethyl)cyclohexyl]piperidin-4-yl}-3-oxo-2,3-dihydro-1H-isoindole-4-carboxamide] | < 30 | < 250 | > 10000 | 2300
3 | NC(=O)c1cccc2c1C(=O)N(C1CCN(Cc3ccc4ccccc4n3)CC1)C2 [Compound 16, 3-oxo-2-[1-(quinolin-2-ylmethyl)piperidin-4-yl]-2,3-dihydro-1H-isoindole-4-carboxamide] | < 30 | < 250 | 3200 | 
4 | NC(=O)c1cccc2c1C(=O)N(C1CCN(Cc3ccc(F)cc3F)CC1)C2 [Compound 17, 2-[1-(2,4-Difluorobenzyl)piperidin-4-yl]-3-oxo-2,3-dihydro-1H-isoindole-4-carboxamide] | < 30 | < 250 | > 10000 | 5770
5 | Cc1ncsc1CN1CCC(N2Cc3cccc(C(N)=O)c3C2=O)CC1 [Compound 26, 2-{1-[(4-Methyl-1,3-thiazol-5-yl)methyl]piperidin-4-yl}-3-oxo-2,3-dihydro-1H-isoindole-4-carboxamide] | < 30 | < 250 | 6500 | 200
6 | NC(=O)c1cccc2c1C(=O)N(C1CCN(CC3CCN(Cc4ccccc4)CC3)CC1)C2 [Compound 27, 2-{1-[(1-Benzylpiperidin-4-yl)methyl]piperidin-4-yl}-3-oxo-2,3-dihydro-1H-isoindole-4-carboxamide] | < 30 | 260 | > 10000 | 320
7 | NC(=O)c1cccc2c1C(=O)N(C1CCN(Cc3cccc4[nH]ccc34)CC1)C2 [Compound 28, 2-[1-(1H-indol-4-ylmethyl)piperidin-4-yl]-3-oxo-2,3-dihydro-1H-isoindole-4-carboxamide] | 34 | < 250 |  | 190
8 | Cn1cc(CN2CCC(N3Cc4cccc(C(N)=O)c4C3=O)CC2)cn1 [Compound 33, 2-{1-[(1-Methyl-1H-pyrazol-4-yl)methyl]piperidin-4-yl}-3-oxo-2,3-dihydro-1H-isoindole-4-carboxamide] |  | < 250 | > 10000 | 1100
9 | Cc1c(CN2CCC(N3Cc4cccc(C(N)=O)c4C3=O)CC2)cnn1C [Compound 34, 2-{1-[(1,5-Dimethyl-1H-pyrazol-4-yl)methyl]piperidin-4-yl}-3-oxo-2,3-dihydro-1H-isoindole-4-carboxamide] | 130 | 340 | > 10000 | 900
10 | Cc1ccsc1CN1CCC(N2Cc3cccc(C(N)=O)c3C2=O)CC1 [Compound 36, 2-{1-[(3-Methylthiophen-2-yl)methyl]piperidin-4-yl}-3-oxo-2,3-dihydro-1H-isoindole-4-carboxamide] | < 30 | < 250 | 9400 | 230
11 | CCCOc1ccc(CN2CCC(N3Cc4cccc(C(N)=O)c4C3=O)CC2)cc1 [Compound 37, 3-oxo-2-[1-(4-propoxybenzyl)piperidin-4-yl]-2,3-dihydro-1H-isoindole-4-carboxamide] | < 30 | < 250 | > 10000 | 260
12 | CC(C)Oc1ccccc1CN1CCC(N2Cc3cccc(C(N)=O)c3C2=O)CC1 [Compound 41, 3-oxo-2-{1-[2-(propan-2-yloxy)benzyl]piperidin-4-yl}-2,3-dihydro-1H-isoindole-4-carboxamide] |  | 470 | > 10000 | 

Further lines, results first:

Row | Kd (PARP-1 FL) [nM] | DC50 (PARP-1 FL) [nM] | DC50 (PARP-2 FL) [nM] | IC50 [1] [nM] | SMILES
13 |  |  | > 10000 |  | NC(=O)c1cccc2c1C(=O)N(C1CCN(Cc3ccc(F)cc3)CC1)C2 [Compound 11, 2-[1-(4-Fluorobenzyl)piperidin-4-yl]-3-oxo-2,3-dihydro-1H-isoindole-4-carboxamide]
14 | < 30 | < 250 | > 10000 |  | NC(=O)c1cccc2c1C(=O)N(C1CCN(Cc3ccccc3F)CC1)C2 [Compound 12, 2-[1-(2-Fluorobenzyl)piperidin-4-yl]-3-oxo-2,3-dihydro-1H-isoindole-4-carboxamide]
15 | < 30 | < 250 | > 10000 |  | NC(=O)c1cccc2c1C(=O)N(C1CCN(Cc3cccc(F)c3)CC1)C2 [Compound 13, 2-[1-(3-Fluorobenzyl)piperidin-4-yl]-3-oxo-2,3-dihydro-1H-isoindole-4-carboxamide]
16 | < 30 | < 250 | > 10000 | 7100 | Cc1ccc(CN2CCC(N3Cc4cccc(C(N)=O)c4C3=O)CC2)cc1C [Compound 18, 2-[1-(3,4-Dimethylbenzyl)piperidin-4-yl]-3-oxo-2,3-dihydro-1H-isoindole-4-carboxamide]
17 |  | < 250 | 5970 | 300 | NC(=O)c1cccc2c1C(=O)N(C1CCN(Cc3ccc4cc[nH]c4c3)CC1)C2 [Compound 30, 2-[1-(1H-indol-6-ylmethyl)piperidin-4-yl]-3-oxo-2,3-dihydro-1H-isoindole-4-carboxamide]
18 | < 30 | < 250 | > 10000 | 300 | COc1cccc(CN2CCC(N3Cc4cccc(C(N)=O)c4C3=O)CC2)c1 [Compound 35, 2-[1-(3-Methoxybenzyl)piperidin-4-yl]-3-oxo-2,3-dihydro-1H-isoindole-4-carboxamide]
19 | < 30 | < 250 | > 10000 | 260 | CC(C)c1ccc(CN2CCC(N3Cc4cccc(C(N)=O)c4C3=O)CC2)cc1 [Compound 38, 3-oxo-2-{1-[4-(propan-2-yl)benzyl]piperidin-4-yl}-2,3-dihydro-1H-isoindole-4-carboxamide]
20 | < 30 | < 250 | > 10000 | 330 | COc1ccc(CN2CCC(N3Cc4cccc(C(N)=O)c4C3=O)CC2)cc1 [Compound 39, 2-[1-(4-Methoxybenzyl)piperidin-4-yl]-3-oxo-2,3-dihydro-1H-isoindole-4-carboxamide]
21 | 110 | < 250 | > 10000 | 620 | CCOc1cccc(CN2CCC(N3Cc4cccc(C(N)=O)c4C3=O)CC2)c1 [Compound 40, 2-[1-(3-Ethoxybenzyl)piperidin-4-yl]-3-oxo-2,3-dihydro-1H-isoindole-4-carboxamide]
22 | 33 | < 250 | 4150 | 5310 | NC(=O)c1cccc2c1C(=O)N(C1CCN(Cc3cccc(Cl)c3)CC1)C2 [Compound 42, 2-[1-(3-Chlorobenzyl)piperidin-4-yl]-3-oxo-2,3-dihydro-1H-isoindole-4-carboxamide]
23 | < 30 | < 250 | > 10000 | 2660 | CCc1ccc(CN2CCC(N3Cc4cccc(C(N)=O)c4C3=O)CC2)cc1 [Compound 43, 2-[1-(4-Ethylbenzyl)piperidin-4-yl]-3-oxo-2,3-dihydro-1H-isoindole-4-carboxamide]
